We go through 13 molecules from US10030047B2 (Hoffmann-La Roche Inc., priority 2015, dated 2018).

≈ marks a conversion by molar mass, not a printed value.

The test system of the experiment is A. baumannii strain ATCC19606. Nature of the experiment: Minimum inhibitory concentration (MIC) determination, microbroth dilution (CLSI). Conditions: Acinetobacter baumannii; A. baumannii ATCC19606; CAMHB; read after 20 hours; >=80% growth inhibition; read-out: ATCC19606 MIC. The class given is cell-based. In outline: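 CLSI broth microdilution in cation-adjusted Mueller Hinton broth with twofold compound dilutions and ~5×10^5 CFU/ml inoculum, incubated at 35±2 °C. MIC read after 20 h as lowest concentration inhibiting ≥80% of growth, by eye and OD 600 nm.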
On the technique in general: Broth dilution looks for growth in wells or tubes with falling amounts of substance.
A word on the MIC: it is the least concentration at which growth counts as inhibited. Take `COc1ccc2c(c1)CNC(=O)[C@H](Cc1c(C)[nH]c3ccccc13)N(C)C(=O)[C@H](CCCCN)NC(=O)[C@H](CCCN)NCc1ccccc1S2` [Example 71, (12S,15S,18S)-15-(4-Amino-butyl)-18-(3-amino-propyl)-6-methoxy-13-methyl-12-(2-methyl-1H-indol-3-ylmethyl)-2-thia-10,13,16,19-tetraaza-tricyclo[19.4.0.0*3,8*]pentacosa-1(21),3,5,7,22,24-hexaene-11,14,17-trione]: the MIC is 0.5 µg/mL (≈ 0.7 µM).
The same measure for `CC(C)c1ccc2c(c1)CNC(=O)[C@H](Cc1c[nH]c3ccccc13)N(C)C(=O)[C@H](CCCCN)NC(=O)[C@H](CCCN)NCc1ccccc1S2` [Example 72, (12S,15S,18S)-15-(4-Amino-butyl)-18-(3-amino-propyl)-12-(1H-indol-3-ylmethyl)-6-isopropyl-13-methyl-2-thia-10,13,16,19-tetraaza-tricyclo[19.4.0.0*3,8*]pentacosa-1(25),3,5,7,21,23-hexaene-11,14,17-trione]: 64 µg/mL (≈ 89.9 µM); for `Cc1[nH]c2ccccc2c1C[C@H]1C(=O)NCc2cc(C(F)(F)F)cc(Cl)c2Sc2ncccc2CN[C@@H](CCCN)C(=O)N[C@@H](CCCCN)C(=O)N1C` [Example 74, (11S,14S,17S)-14-(4-Amino-butyl)-11-(3-amino-propyl)-25-chloro-16-methyl-17-(2-methyl-1H-indol-3-ylmethyl)-23-trifluoromethyl-2-thia-4,10,13,16,19-pentaaza-tricyclo[19.4.0.0*3,8*]pentacosa-1(25),3(8),4,6,21,23-hexaene-12,15,18-trione]: 0.25 µg/mL (≈ 0.318 µM); for `Cc1[nH]c2ccccc2c1C[C@H]1C(=O)NCc2c(C(F)(F)F)ccc(Cl)c2Sc2ncccc2CN[C@@H](CCCN)C(=O)N[C@@H](CCCCN)C(=O)N1C` [Example 75, (11S,14S,17S)-14-(4-Amino-butyl)-11-(3-amino-propyl)-25-chloro-16-methyl-17-(2-methyl-1H-indol-3-ylmethyl)-22-trifluoromethyl-2-thia-4,10,13,16,19-pentaaza-tricyclo[19.4.0.0*3,8*]pentacosa-1(25),3(8),4,6,21,23-hexaene-12,15,18-trione]: 0.12 µg/mL (≈ 0.152 µM).
Turning to `Cc1[nH]c2ccccc2c1C[C@H]1C(=O)NCc2cc(Cl)cc(Cl)c2Sc2ncccc2CN[C@@H](CCCN)C(=O)N[C@@H](CCCCN)C(=O)N1C` [Example 76, (11S,14S,17S)-14-(4-Amino-butyl)-11-(3-amino-propyl)-23,25-dichloro-16-methyl-17-(2-methyl-1H-indol-3-ylmethyl)-2-thia-4,10,13,16,19-pentaaza-tricyclo[19.4.0.0*3,8*]pentacosa-1(25),3(8),4,6,21,23-hexaene-12,15,18-trione], the MIC came to 0.12 µg/mL (≈ 0.159 µM).
The same measure for `CCN1C(=O)[C@H](CCCCN)NC(=O)[C@H](CCCN)NCc2cccnc2Sc2c(Cl)cc(C(F)(F)F)cc2CNC(=O)[C@@H]1Cc1c[nH]c2ccccc12` [Example 77, (11S,14S,17S)-14-(4-Amino-butyl)-11-(3-amino-propyl)-25-chloro-16-ethyl-17-(1H-indol-3-ylmethyl)-23-trifluoromethyl-2-thia-4,10,13,16,19-pentaaza-tricyclo[19.4.0.0*3,8*]pentacosa-1(25),3(8),4,6,21,23-hexaene-12,15,18-trione]: 0.5 µg/mL (≈ 0.635 µM).
In the case of `CCN1C(=O)[C@H](CCCCN)NC(=O)[C@H](CCCN)NCc2cccnc2Sc2c(Cl)ccc(Cl)c2CNC(=O)[C@@H]1Cc1c[nH]c2ccccc12` [Example 78, (11S,14S,17S)-14-(4-Amino-butyl)-11-(3-amino-propyl)-22,25-dichloro-16-ethyl-17-(1H-indol-3-ylmethyl)-2-thia-4,10,13,16,19-pentaaza-tricyclo[19.4.0.0*3,8*]pentacosa-1(25),3(8),4,6,21,23-hexaene-12,15,18-trione] it was 0.25 µg/mL (≈ 0.332 µM); in that of `CCN1C(=O)[C@H](CCCCN)NC(=O)[C@H](CCCN)NCc2cccnc2Sc2c(Cl)ccc(C(F)(F)F)c2CNC(=O)[C@@H]1Cc1c[nH]c2ccccc12` [Example 79, (11S,14S,17S)-14-(4-Amino-butyl)-11-(3-amino-propyl)-25-chloro-16-ethyl-17-(1H-indol-3-ylmethyl)-22-trifluoromethyl-2-thia-4,10,13,16,19-pentaaza-tricyclo[19.4.0.0*3,8*]pentacosa-1(25),3(8),4,6,21,23-hexaene-12,15,18-trione], 0.25 µg/mL (≈ 0.318 µM).
In the case of `CCN1C(=O)[C@H](CCCCN)NC(=O)[C@H](CCCN)NCc2cccnc2Sc2c(Cl)cc(Cl)cc2CNC(=O)[C@@H]1Cc1c[nH]c2ccccc12` [Example 80, (11S,14S,17S)-14-(4-Amino-butyl)-11-(3-amino-propyl)-23,25-dichloro-16-ethyl-17-(1H-indol-3-ylmethyl)-2-thia-4,10,13,16,19-pentaaza-tricyclo[19.4.0.0*3,8*]pentacosa-1(25),3(8),4,6,21,23-hexaene-12,15,18-trione] it was 0.12 µg/mL (≈ 0.159 µM); in that of `NCCCC[C@@H]1NC(=O)[C@H](CCCN)NCc2cccnc2Sc2c(Cl)cc(Cl)cc2CNC(=O)[C@H](Cc2c[nH]c3ccccc23)NC1=O` [Example 81, (11S,14S,17S)-14-(4-Amino-butyl)-11-(3-amino-propyl)-23,25-dichloro-17-(1H-indol-3-ylmethyl)-2-thia-4,10,13,16,19-pentaaza-tricyclo[19.4.0.0*3,8*1]pentacosa-1(25),3(8),4,6,21,23-hexaene-12,15,18-trione], 1 µg/mL (≈ 1.38 µM).
For the molecule `NCCCC[C@@H]1NC(=O)[C@H](CCCN)NCc2cccnc2Sc2c(Cl)ccc(Cl)c2CNC(=O)[C@H](Cc2c[nH]c3ccccc23)NC1=O` [Example 82, (11S,14S,17S)-14-(4-Amino-butyl)-11-(3-amino-propyl)-22,25-dichloro-17-(1H-indol-3-ylmethyl)-2-thia-4,10,13,16,19-pentaaza-tricyclo[19.4.0.0*3,8*]pentacosa-1(25),3(8),4,6,21,23-hexaene-12,15,18-trione], the MIC is 4 µg/mL (≈ 5.51 µM).
`CCN1C(=O)[C@H](CCCCN)NC(=O)[C@H](CCCN)NCc2cccnc2Sc2c(C)cc(Br)cc2CNC(=O)[C@@H]1Cc1c[nH]c2ccccc12` [Example 84, (11S,14S,17S)-14-(4-Amino-butyl)-11-(3-amino-propyl)-23-bromo-16-ethyl-17-(1H-indol-3-ylmethyl)-25-methyl-2-thia-4,10,13,16,19-pentaaza-tricyclo[19.4.0.0*3,8*]pentacosa-1(25),3(8),4,6,21,23-hexaene-12,15,18-trione]: the minimum inhibitory concentration (MIC) was 0.12 µg/mL (≈ 0.154 µM).
The same measure for `CN1C(=O)[C@H](CCCCN)NC(=O)[C@H](Cc2cncn2C)NCc2cccnc2Sc2c(Cl)cc(C(F)(F)F)cc2CNC(=O)[C@@H]1Cc1c[nH]c2ccccc12` [Example 85, (11S,14S,17S)-14-(4-Amino-butyl)-25-chloro-17-(1H-indol-3-ylmethyl)-16-methyl-11-(3-methyl-3H-imidazol-4-ylmethyl)-23-trifluoromethyl-2-thia-4,10,13,16,19-pentaaza-tricyclo[19.4.0.0*3,8*]pentacosa-1(25),3(8),4,6,21,23-hexaene-12,15,18-trione]: 0.5 µg/mL (≈ 0.617 µM).
